Laboratory results reported in paper PMC3558805 (British Journal of Clinical Pharmacology, 2012).
In brackets after ≈: the same amount, converted by molar mass. Entries after “also recorded” stand apart in the source; their conditions may differ.

Experiments:
[1] = 14 day toxicology or CNS safety pharmacology studies, preclinical; cited from earlier work
[2] = Single rising dose plasma PK, OZ439 oral dispersion, fasted healthy subjects; assay type: in vivo, human; conditions: for Tmax / AUC(0-inf) / AUC(0-t) / Cmax: human, plasma, po
[3] = Single rising dose plasma PK, OZ439 capsule, fasted healthy subjects; assay type: in vivo, human
CYP3A4 = CYP3A4 induction assay; assay type: in vivo, human; conditions: up to 3 days dosing
[4] = Safety assessment in healthy subjects; assay type: in vivo, human
[5] = system: P. falciparum laboratory strain NF54; assay: Ex vivo bioactivity assay of serum samples; assay type: cell-based; conditions: Plasmodium falciparum
[6] = Plasma pharmacokinetics of OZ439, summary over single and multiple dose parts; assay type: in vivo, human
Plasmodium berghei = conditions: single oral dose of 20 mg kg^−1; already known; cited from earlier work
[7] = Urinary excretion of OZ439 and metabolites; assay type: in vivo, human; conditions: single rising dose, 0-48 h urine, data not shown
[8] = Food effect on plasma PK, 800 mg OZ439 oral dispersion, fed vs fasted; assay type: in vivo; conditions: human; for AUC(0-t): single dose 800 mg OZ439 oral dispersion, geometric mean (CV%)
[9] = dogs, preclinical; cited from earlier work
[10] = Multiple rising dose plasma PK, OZ439 oral dispersion once daily for 3 days; assay type: in vivo, human; conditions: for Rac / AUC(0-t) / Cmax: geometric mean (CV%); for AUC(0-t) / Cmax / Tmax: po; for AUC(0-t): AUC(0,24 h)
[11] = both, human, plasma, oral, 50 mg
[12] = both, human, plasma, oral, 100 mg
[13] = both, human, plasma, oral, 200 mg
[14] = 800 mg oral dispersion, fasted regimen, possibly treatment related
[15] = single dose 1600 mg oral dispersion, related to study drug
[16] = human, plasma, 200 mg, 200 mg once a day for 3 days, oral dispersion, day 1
[17] = human, plasma, 200 mg, 200 mg once a day for 3 days, oral dispersion, day 3
[18] = human, plasma, 400 mg, 400 mg once a day for 3 days, oral dispersion, day 1
[19] = human, plasma, 400 mg, 400 mg once a day for 3 days, oral dispersion, day 3
[20] = human, plasma, 800 mg, 800 mg once a day for 3 days, oral dispersion, day 1
[21] = human, plasma, 800 mg, 800 mg once a day for 3 days, oral dispersion, day 3

For `c1cc([C@H]2CC[C@]3(CC2)OO[C@]2(O3)C3CC4CC(C3)CC2C4)ccc1OCCN1CCOCC1` [OZ439], the “central nervous system toxicity” value [1] is given as “no preclinical evidence of central nervous system toxicity”, the “time mean plasma concentrations were above 10 ng ml^−1” value ([2]; 400 mg oral dispersion, fasted) is given as 36 h and the “time mean plasma concentrations were above 10 ng ml^−1” value ([2]; 800 mg oral dispersion, fasted) is given as 60 h. The “AUC(0,t), oral dispersion compared with capsule” value ([2]; 800 mg, fasted) was 3.2 fold, the “Cmax, oral dispersion compared with capsule” value ([2]; 800 mg, fasted) was 2.9 fold and the “time mean plasma concentrations were above 10 ng ml^−1” value ([2]; 1600 mg oral dispersion, fasted) was 96 h. For the same molecule, the Tmax [2] was 3 to 5 h, the AUC(0-inf) ([2]; 400 mg) was 5540 ng·h/mL and the AUC(0-t) ([2]; 400 mg) was 5430 ng·h/mL. For the same molecule, the Cmax ([2]; 400 mg) was 566 ng/mL, the Tmax ([2]; 400 mg) was 3 h and the AUC(0-inf) ([2]; 800 mg) was 9790 ng·h/mL. It also gave an AUC(0-t) ([2]; 800 mg) of 9630 ng·h/mL, a Cmax ([2]; 800 mg) of 917 ng/mL and a Tmax ([2]; 800 mg) of 3 h. The AUC(0-t) ([2]; 1600 mg) was 17500 ng·h/mL, the Cmax ([2]; 1600 mg) was 1340 ng/mL and the Tmax ([2]; 1600 mg) was 5 h. For the same molecule, the “inter-subject variability of AUC(0,∞)” value ([2]; oral dispersion) was 57.2%, the “inter-subject variability of Cmax” value ([2]; oral dispersion) was 41.8% and the “intra-subject variability of AUC(0,∞)” value ([2]; oral dispersion) was 23.2%. For the same molecule, the “intra-subject variability of Cmax” value ([2]; oral dispersion) was 14.0%, the AUC(0-t) [3, 11] was 102 ng·h/mL and the Cmax [3, 11] was 17.4 ng/mL. The Tmax [3, 11] was 3 h, the AUC(0-t) [3, 12] was 249 ng·h/mL and the Cmax [3, 12] was 34.2 ng/mL. The Tmax [3, 12] was 5 h, the AUC(0-t) [3, 13] was 890 ng·h/mL and the Cmax [3, 13] was 102 ng/mL. For the same molecule, the Tmax [3, 13] was 3.5 h, the Cmax ([3]; both, human, plasma, oral, 400 mg) was 135 ng/mL and the “inter-subject variability of AUC(0,t)” value ([3]; capsule) was 71.5%. The “inter-subject variability of Cmax” value ([3]; capsule) was 79.5%, the “intra-subject variability of AUC(0,t)” value ([3]; capsule) was 92.6% and the “intra-subject variability of Cmax” value ([3]; capsule) was 77.4%. The Tmax ([3]; human, plasma, oral) was 3 to 5 h, the AUC(0-t) ([3]; human, plasma, oral, 400 mg) was 1130 ng·h/mL and the Tmax ([3]; human, plasma, oral, 400 mg) was 3 h. The AUC(0-inf) ([3]; human, plasma, oral, 800 mg) was 4690 ng·h/mL, the AUC(0-t) ([3]; human, plasma, oral, 800 mg) was 3010 ng·h/mL and the Cmax ([3]; human, plasma, oral, 800 mg) was 315 ng/mL. The Tmax ([3]; human, plasma, oral, 800 mg) was 3 h, the concentration at 24 h ([3]; human, plasma, oral, 800 mg) was greater than 20 ng/mL and the AUC(0-inf) ([3]; human, plasma, oral, 1200 mg) was 9130 ng·h/mL. For the same molecule, the AUC(0-t) ([3]; human, plasma, oral, 1200 mg) was 6530 ng·h/mL, the Cmax ([3]; human, plasma, oral, 1200 mg) was 701 ng/mL and the Tmax ([3]; human, plasma, oral, 1200 mg) was 3 h. The “induction of CYP3A4” value (CYP3A4) was “did not induce”, the “subjects experiencing AEs” value ([4]; 200 mg once daily for 3 days) was “Three of six” and the “subjects experiencing AEs” value ([4]; 400 mg once daily for 3 days) was 1/6. The “subjects experiencing AEs” value ([4]; 800 mg once daily for 3 days) was 4/6, the headache [4, 14] was 1/12 and the nausea [4, 14] was 1/12. For the same molecule, the oropharyngeal pain [4, 14] was 1/12, the “subjects experiencing AEs” value ([4]; 800 mg oral dispersion, fed regimen) was “Three of 12” and the headache ([4]; 800 mg oral dispersion, fed regimen, possibly treatment related) was 2/12. For the same molecule, the safety and tolerability ([4]; 200, 400 and 800 mg once daily for 3 days) was “safe and well tolerated”, the “effect on QTc interval” value ([4]; healthy subjects) was “no significant effect” and the “overall incidence of AEs” value ([4]; other single rising dose groups, out of 6–8) was 0–2 subjects. For the same molecule, the safety and tolerability ([4]; single dose 800 mg oral dispersion, fasted or fed) was “safe and well tolerated”, the “overall incidence of AEs” value ([4]; single dose 1600 mg oral dispersion) was 5/6 and the diarrhoea [4, 15] was 3/6. For the same molecule, the gastrointestinal hypermotility [4, 15] was 2/6, the nausea [4, 15] was 3/6 and the “effect on audiometry/BAEP” value ([4]; single dose and repeat dose parts) was “no clinically significant changes; also recorded: No effect”. For the same molecule, the safety and tolerability ([4]; single doses 50 mg up to 1200 mg capsule, oral dispersion up to 1600 mg) was “safe and well tolerated”, the IC50 ([5]; NF54, ex vivo serum samples, average value) was 1.5 ng/mL (≈ 3.19 nM) and the IC50 ([5]; NF54, ex vivo serum samples, general range) was 1.3 to 2 ng/mL (≈ 2.77 to 4.26 nM). The IC50 ([5]; NF54, pre-dose serum spiked with a known amount of OZ439) was 1.7 ng/mL (≈ 3.62 nM), the Tmax ([6]; human, plasma, oral) was roughly 3 h and the “time plasma concentrations exceed the estimated minimum effective concentration” value ([6]; well tolerated dose levels) was roughly 96 h. The “cure of Plasmodium berghei-infected mice” value (Plasmodium berghei) was “completely cures”, the urinary concentrations [7] was “low or below the limit of quantitation” and the concentration at 96 h [8] was greater than 10 ng/mL. The AUC(0-t) ([8]; fasted) was 7590 ng·h/mL, the AUC(0-t) ([8]; fed) was 23100 ng·h/mL and the “no observed adverse effect level (NOAEL)” value [9] was 20 mg/kg/day. For the same molecule, the Rac ([10]; 400 mg once a day for 3 days, oral dispersion, day 3) was 1.76 (29.9), the Rac ([10]; 800 mg once a day for 3 days, oral dispersion, day 3) was 1.43 (26.0) and the attainment of steady-state ([10]; day 3 of dosing) was “steady-state was not achieved; also recorded: had not been attained”. The concentration at 96 h ([10]; human, plasma, oral, 400 mg) was roughly 17 ng/mL, the AUC(0-t) [10, 16] was 2640 ng·h/mL and the AUC(0-t) [10, 17] was 3060 ng·h/mL. It also gave a Cmax [10, 16] of 314 ng/mL, a Cmax [10, 17] of 342 ng/mL and a Tmax ([10]; human, plasma, 200 mg, tmax, 200 mg once a day for 3 days, oral dispersion, day 1, median (range)) of 3.5 h. It also gave a Tmax ([10]; human, plasma, 200 mg, tmax, 200 mg once a day for 3 days, oral dispersion, day 3, median (range)) of 3 h, an AUC(0-t) [10, 18] of 4560 ng·h/mL and an AUC(0-t) [10, 19] of 7990 ng·h/mL. For the same molecule, the Cmax [10, 18] was 505 ng/mL, the Cmax [10, 19] was 764 ng/mL and the Tmax ([10]; human, plasma, 400 mg, tmax, 400 mg once a day for 3 days, oral dispersion, day 1, median (range)) was 3.5 h. The Tmax ([10]; human, plasma, 400 mg, tmax, 400 mg once a day for 3 days, oral dispersion, day 3, median (range)) was 3 h, the AUC(0-t) [10, 20] was 9570 ng·h/mL and the AUC(0-t) [10, 21] was 13700 ng·h/mL. It also gave a Cmax [10, 20] of 1130 ng/mL, a Cmax [10, 21] of 1390 ng/mL and a Tmax ([10]; human, plasma, 800 mg, median tmax, 200, 400 or 800 mg once daily for 3 days, oral dispersion) of 3 h. For the same molecule, the Tmax ([10]; human, plasma, 800 mg, tmax, 800 mg once a day for 3 days, oral dispersion, day 1, median (range)) was 3 h, the Tmax ([10]; human, plasma, 800 mg, tmax, 800 mg once a day for 3 days, oral dispersion, day 3, median (range)) was 3 h and the “inter-subject variability of AUC(0,24 h)” value ([10]; multiple dose, oral dispersion) was 54.1%. The “inter-subject variability of Cmax” value ([10]; multiple dose, oral dispersion) was 48.9%.
